Laboratory results reported in patent US20090264342A1, “COMPOSITIONS AND METHODS FOR ANTIBIOTIC POTENTIATION AND DRUG DISCOVERY” (priority 2006, published 2009).

Columns and labels:
[1] = system: E. coli MG1655; assay: Hydroxyl radical formation (HPF dye, flow cytometry) in E. coli; type: cell-based; details: E. coli; 250 ng/mL norfloxacin, 5 μg/mL ampicillin, 5 μg/mL kanamycin; bacteriostatic drugs; 3 hours after addition
Procedure: (§1) Growth Conditions. In the experiments, the growth and survival of untreated exponential phase E. coli, or S. aureus, were compared to cultured treated with antibiotics at the above concentrations. E. coli cultures were treated with norfloxacin, kanamycin, ampicillin, rifamycin SV, chloramphenical, tetracycline, erythromycin, or spectinomycin, where appropriate, S. aureus cultures were treated with norfloxacin, vancomycin or chloramphenical, where appropriate.
(§2) Hydroxyl radical and DNA damage sensor experiments using the flow cytometer. To monitor the occurrence of DNA damage, the engineered DNA damage sensor was used, which responds to auto-cleavage of LexA by activating expression of gfpmut3b. All the drug treatments and the no-drug controls were collected with both the kanamycin- and ampicillin-resistant version of the plasmid, with the exception of the ampicillin treatment (kanamycin plasmid only) and the kanamycin treatment (ampicillin plasmid only). All data were collected using a Becton Dickinson FACSCalibur flow cytometer (Becton Dickinson, San Jose, Calif.) with a 488-nm argon laser and a 515- to 545-nm emission filter (FL1) at low flow rate. The following PMT voltage settings were used: E00 (FSC), 360 (SSC) and 700 (FL1). To detect hydroxyl radical formation, the fluorescent reporter dye, 3′-(p-hydroxyphenyl) fluorescein (HPF, Invitrogen, Carlsbad, Calif.) was used at a concentration of 5 μM (1:1000) dilution), which is oxidized by hydroxyl radicals with high specificity. The following PMT voltage settings were used: E00 (FSC), 360 (SSC) and 825 (FL 1). Calibrite beads (Becton Dickinson) were used for instrument calibration.
Flow data were processed and analyzed with MATLAB (MathWorks, Natick, Mass.) to construct figures. At least 50,000 cells were collected for each sample. In all experiments, cells were grown as described above. Samples were taken immediately before addition of drug (time zero), then every hour for 3 hours. At each timepoint, approximately […] were collected, washed once and resuspended in filtered 1×PBS, pH 7.2 (Fisher Scientific), and fluorescence was measured on the flow cytometer.
In the present study, the Applicants chose to investigate whether hydroxyl radical formation also contributes to antibiotic-induced cell death in bacteria. Using the dye hydroxyphenyl fluorescein, HPF, which is oxidized by hydroxyl radicals with high specificity, hydroxyl radical formation was first observed over a range of hydrogen peroxide concentrations known to induce hydroxyl radicals through the reduction of hydrogen peroxide by ferrous iron. In this manner, it was possible to establish the scale of hydroxyl radical formation detectable using this dye via flow cytometry.

[2] = biological target: T1, E. Coli RecA protein (Escherichia coli, UniProt P0A7G6); assay: RecA ATPase activity, in vitro luciferase assay; type: biochemical; details: luciferase assay screen, FIG. 14
T1 construct: purchased New England Biolabs
Procedure: The assay measures the amount of ATPase (adenosine triphosphate (ATP)-adenosine diphosphate (ADP)) activity catalyzed by E. Coli RecA protein. In the assay, recA is incubated in reaction buffer with DNA, ATP and compounds of interest for a measured amount of time. The quantity of ATP remaining after the RecA reaction is quantitated using a subsequent luciferase assay. […] Details of the assay are provided below.
Materials. Kingase glo plus, adenosine triphosphate (ATP), Adenosine 5′-O-(3-thiotriphosphate), and 384 well plates, white were obtained from Fisher; and M13 mp18 Single-stranded DNA, RecA Protein and T4 Polynucleotide Kinase Reaction Buffer=PNK were obtained from New England Biolabs. PNK contained 70 mM Tris-CL pH 7.5, 10 mM MgCl2 and 5 mM DTT.
Assay Procedure. Final reaction mixture contains: 0.5 μL of M13 single stranded DNA (250 μg/mL); 1.0 μL of 10×PHK buffer; 0.25 μL of RecA (2 mg/mL); 0.25 μL of 1 mM ATP; 0.25 μL of test compound in DMSO; and […] of H2O.
Test compounds are incubated at room temperature in the presence of RecA protein and DNA prior to addition of ATP. This can be achieved by the preparation of two mixes, as indicated below. Desirably, both a no-DNA and a DNA/DMSO-only (i.e., no test compound) control were included.
The following steps are then performed: (1) Add 7.75 μL of mix 1 to the well of a 384 well plate; (2) Add 0.5 μL of the compound of interest; (3) Incubate at room temperature for 5 minutes; (4) Add 2.5 μL of the ATP mix. Incubate at room temperature for 30 minutes; (5) Add 12.5 μL of Promega Kinase glo plus; (6) Incubate at room temperature for 10 minutes or more; and (7) Measure luminescence of the reaction.
Tested compounds were obtained from Boston University (1205 compounds from CMLD diversity library, available from Dr. Scott Schauss), IndoFine (66 compounds based on flavone structure), ChemdiV (48 compounds known to be ATPase inhibitors and 720 compounds structurally related to CB101 (described, for example, in U.S. Ser. No. 60/662,038), and Asinex. Five (5) tested compounds were bisfiavones and 28 were predicted, based on structural modeling (see, for example, Example 31) to dock with Rec A. Many of the compounds are lipophilic, natural-product-like compounds. Others are flavones, bisflavones, flavonoids, coumarins, and/or heterocyclic compounds.
Percent inhibition is calculated according to the following equation: […]

[3] = system: strain E1; assay: Potentiation of gentamicin by mefloquine (MBC, MIC); type: cell-based
Source text: Several aminoglycoside (gentamicin) potentiator target genes identified in Example 34 are ATP synthases.

[4] = system: wild-type strain of S. aureus; assay: Hydroxyl radical formation (HPF dye, flow cytometry) in S. aureus; type: cell-based
Procedure: For work with S. aureus, a Staphylococcus aureus subspecies aureus Rosenback strain was used that was obtained from ATCC (29740).
as §1, §2

[5] = biological target: E. coli H+ATPase (Escherichia coli, UniProt P0AB98+P68699); details: cited from earlier work
[6] = system: S. aureus cells; assay: Mutation/resistance assay, resistance to ciprofloxacin; type: cell-based; details: 4×MIC ciprofloxacin with (+) or without (−) 25 μg/mL hinokiflavone
Procedure: This assay measures the rate at which mutant cells arise in the presence of an antibiotic agent. Cells are grown in the presence of antibiotic agent at a concentration above (generally well above, e.g., 4× or 8×) its MIC, and further in the presence or absence of a test agent (that may inhibit or enhance mutation).
Every 24 hours, an aliquot is removed from the culture and is diluted so that the antibiotic agent is no longer present at a concentration above its MIC (e.g., so that the antibiotic agent is present at 0.5×MIC or less). These aliquoted samples are then assayed to determine whether they can grow in the presence of the antibiotic agent. Specifically, when growth is observed in the presence of antibiotic agent at a concentration that is 4×MIC, then resistance is said to have developed. Test compounds can therefore be assayed to assess whether or not they can reduce the incidence of resistance (e.g., by inhibiting mutation).
These aliquoted samples were then assayed to determine whether they can grow in the presence of ciprofloxacin. […]

[7] = system: wild type E. coli; assay: Growth of wild type E. coli in the presence of quinolone (OD600); type: cell-based; details: 0.1 μg/mL of Cipro (sublethal concentration)
Source text: Each deletion strain was constructed by replacing the chromosomal copy of the relevant gene in a wild type E. coli strain (K-12) with a selectable antibiotic resistance gene, essentially as described, to create a precise gene deletion (Datsenko, K. A. and Wanner, B. L., “One-step inactivation of chromosomal genes in Escherichia coli K-12 using PCR products”, Proc Natl Acad Sci USA, 97, 6640-6645, […]); Baba, T., Ara, T., Okumura, Y., iki Hasegawa, M., Takai, Y., Baba, M., Oshima, T., Tomita, M., Wanner, B. and Mori, H. (2003) Systematic construction of single gene deletion mutants in Escherichia coli K-12 (in preparation) and see also the web site at ecoli.aist-nara.ac.jp/gb5/Resources/deletion/deletion.html).
For each mutant, the ratio of growth of the mutant in the presence of a sublethal concentration of quinolone to growth of the mutant in the absence of quinolone was calculated after 12 hours of growth at 37° C., based on OD600 measurements. […]

T1 sequence (P0A7G6 2-353): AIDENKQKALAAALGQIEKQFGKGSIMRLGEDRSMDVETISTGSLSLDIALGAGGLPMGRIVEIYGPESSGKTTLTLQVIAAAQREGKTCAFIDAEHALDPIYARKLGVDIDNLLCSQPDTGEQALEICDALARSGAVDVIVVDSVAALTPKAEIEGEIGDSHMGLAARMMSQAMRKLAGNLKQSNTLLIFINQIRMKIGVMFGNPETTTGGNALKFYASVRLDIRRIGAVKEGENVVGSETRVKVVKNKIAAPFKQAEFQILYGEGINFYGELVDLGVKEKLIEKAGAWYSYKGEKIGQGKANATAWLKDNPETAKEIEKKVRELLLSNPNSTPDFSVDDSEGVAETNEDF

Compound: CO[C@H]1/C=C/O[C@@]2(C)Oc3c(C)c([O-])c4c(O)c(cc(O)c4c3C2=O)NC(=O)/C(C)=C\C=C\[C@H](C)[C@H](O)[C@@H](C)[C@@H](O)[C@@H](C)[C@H](OC(C)=O)[C@@H]1C.[Na+] [rifamycin SV]
- hydroxyl radical formation [1]: did not stimulate hydroxyl radical production

Compound: O=c1c(O)c(-c2ccc(O)c(O)c2)oc2cc(O)ccc12 [fisetin]
- activity as inhibitor of RecA ATPase (in words) [2]: particularly active

Compound: O=c1c(O)cc([C@H]2Oc3cc(O)cc(O)c3C[C@H]2O)cc2c([C@H]3Oc4cc(O)cc(O)c4C[C@H]3O)cc(O)c(O)c12 [theaflavin]
- activity as inhibitor of RecA ATPase (in words) [2]: particularly active

Compound: O=c1cc(-c2ccc(O)cc2)oc2cc(O)cc(O)c12 [apigenin]
- activity as inhibitor of RecA ATPase (in words) [2]: particularly active

Compound: O=c1c(O)c(-c2ccc(O)c(O)c2)oc2cc(O)c(O)c(O)c12 [quercetagetin]
- activity as inhibitor of RecA ATPase (in words) [2]: particularly active

Compound: OC(c1cc(C(F)(F)F)nc2c(C(F)(F)F)cccc12)C1CCCCN1 (centres unmarked) [Mefloquine]
- reduction of the MBC of gentamicin ([3]; strain E1, Mefloquine 100 μg/mL): 6 fold
- reduction of the MIC of gentamicin ([3]; strain E1, Mefloquine 500 μg/mL): 2 fold

Compound: O=C(N[C@H](CO)[C@H](O)c1ccc([N+](=O)[O-])cc1)C(Cl)Cl [chloramphenicol]
- hydroxyl radical formation ([4]; norfloxacin, chloramphenical): hydroxyl formation was not observed
- hydroxyl radical formation [1]: did not stimulate hydroxyl radical production

Compound: COc1cc(-c2oc3cc(O)cc(O)c3c(=O)c2O)ccc1O [isorhamnetin]
- activity as inhibitor of RecA ATPase (in words) [2]: particularly active

Compound: O=c1c(O)c(-c2ccc(O)cc2O)oc2cc(O)cc(O)c12 [morin]
- activity as inhibitor of RecA ATPase (in words) [2]: particularly active

Compound: CC[C@H]1OC(=O)[C@H](C)[C@@H](O[C@H]2C[C@@](C)(OC)[C@@H](O)[C@H](C)O2)[C@H](C)[C@@H](O[C@@H]2O[C@H](C)C[C@H](N(C)C)[C@H]2O)[C@](C)(O)C[C@@H](C)C(=O)[C@H](C)[C@@H](O)[C@]1(C)O [erythromycin]
- hydroxyl radical formation [1]: did not stimulate hydroxyl radical production

Compound: O=c1cc(-c2ccc(O)cc2)oc2cc(O)c(O)c(O)c12 [6-hydroxy-apigenin]
- activity as inhibitor of RecA ATPase (in words) [2]: particularly active

Compound: O=C(c1ccc(O)c(O)c1)c1c(O)cc(O)cc1O [maclurin]
- activity as inhibitor of RecA ATPase (in words) [2]: particularly active

Compound: CN[C@H](CC(C)C)C(=O)N[C@H]1C(=O)N[C@@H](CC(N)=O)C(=O)N[C@H]2C(=O)N[C@H]3C(=O)N[C@H](C(=O)N[C@H](C(=O)O)c4cc(O)cc(O)c4-c4cc3ccc4O)[C@H](O)c3ccc(c(Cl)c3)Oc3cc2cc(c3O[C@@H]2O[C@H](CO)[C@@H](O)[C@H](O)[C@H]2O[C@H]2C[C@](C)(N)[C@H](O)[C@H](C)O2)Oc2ccc(cc2Cl)[C@H]1O [vancomycin]
- hydroxyl radical formation ([4]; lethal concentration (5 μg/mL)): increase in hydroxyl radical production
- hydroxyl radical formation ([4]; sub-lethal concentration (1 μg/mL)): hydroxyl formation was not observed

Compound: O.O.O=c1c(O)c(-c2ccc(O)c(O)c2)oc2cc(O)cc(O)c12 [quercetin dihydrate]
- activity as inhibitor of RecA ATPase (in words) [2]: particularly active

Compound: O=c1c(O)c(-c2ccc(O)cc2)oc2cc(O)cc(O)c12 [kaempferol]
- activity as inhibitor of RecA ATPase (in words) [2]: particularly active

Compound: CC[C@H]1/C=C/C=C/C[C@@H](C)[C@H](O)[C@@](C)(O)C(=O)[C@@H](C)[C@H](O)[C@@H](C)C(=O)[C@@H](C)[C@H](O)[C@@H](C)/C=C/C(=O)O[C@@H]2[C@H](C)[C@H](CC1)O[C@]1(CC[C@H](C)[C@H](C[C@@H](C)O)O1)[C@H]2C [oligomycin]
- inhibition of ATP-driven proton transport and ATP hydrolysis [5]: weakly inhibited

Compound: venturicidin
- inhibition of ATP-driven proton transport and ATP hydrolysis [5]: strongly inhibited

Compound: O=c1c(O)c(-c2ccc(O)cc2)oc2cc(O)ccc12 [3,7,4′-trihydroxyflavone]
- activity as inhibitor of RecA ATPase (in words) [2]: particularly active

Compound: O=c1cc(-c2ccc(O)cc2)oc2cc(O[C@@H]3O[C@H](CO)[C@@H](O)[C@H](O)[C@H]3O)cc(O)c12 [apigenin-7-O-glucoside]
- activity as inhibitor of RecA ATPase (in words) [2]: particularly active

Compound: O=C(O)c1cn(C2CC2)c2cc(N3CCNCC3)c(F)cc2c1=O [Cipro, ciprofloxacin]
- Number of Wells in which Growth Observed in Presence of Ciprofloxacin at 4x MIC ([6]; culture grown 0 days): 0
- Number of Wells in which Growth Observed in Presence of Ciprofloxacin at 4x MIC ([6]; culture grown 1 day): 1
- Number of Wells in which Growth Observed in Presence of Ciprofloxacin at 4x MIC ([6]; culture grown 5 days): 2
- Number of Wells in which Growth Observed in Presence of Ciprofloxacin at 4x MIC ([6]; culture grown 6 days): 2
- Number of Wells in which Growth Observed in Presence of Ciprofloxacin at 4x MIC ([6]; culture grown 7 days): 3
- Number of Wells in which Growth Observed in Presence of Ciprofloxacin at 4x MIC ([6]; culture grown 10 days): 11
- growth of wild type E. coli in the presence of Cipro [7]: able to grow
